Test results as given in patent US20260347319A1, “YAP/TAZ-TEAD ONCOPROTEINS INHIBITORS” (BridGene Biosciences, Inc., priority 2022, published 2026).
Where two headings read alike, the source gives them in different places.

Tests used:
Assay type in all cases: cell-based
TEAD1 [1] = experiment: MCF-7 TEAD1-luciferase reporter assay (MCF7-TEAD-Luc); conditions: MCF7 cells, overnight; for IC50: Homo sapiens; for TEAD1-Luc MCF7: Max Inhibition: % of DMSO-treated control
Method in brief: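 MCF7 cells with a TEAD luciferase reporter were seeded at 10,000 per well, grown 24 hours at 37° C, then treated overnight with serially diluted compound. Luciferase signal was normalized as % inhibition relative to DMSO controls, and IC50 came from a four-parameter fit.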

TEAD3 [2] = target: T1, TEAD3 (Homo sapiens, UniProt Q99594); experiment: Palmitoylation assay, TEAD3 (HEK293T cells); design: unspecified tag; expressed in transfected cells; host or cells: HEK293T; conditions: 3 um compound, 24 hours
Procedure: (§1) Tagged TEAD constructs were cloned in pTriEx-6 (Novagen #71559) and transiently transfected into HEK293T cells for 24 hours. Then cells were treated with compounds for 24 hours, or treated with compounds plus 25 μM alkyne palmitic acid (for palmitoylation assay), and cell pellets were collected. Cells were lysed in lysis Buffer (100 mM Tris-HCl, 150 mM NaCl, 1% Triton, 5 mg/mL protease inhibitor cocktail), centrifuged for 10 min at 15000 g, TEAD proteins were pulled down and subjected to click-chemistry with TAMRA azide (Click Chemistry Tools #AZ109) to label compound-modified protein. Protein bands were separated by SDS-gel electrophoresis, target bands at expected molecular size were visualized using BioRad ChemiDoc Imaging system, band intensities were quantified by Image Studio.
Target sequence in this assay (Q99594 whole entry): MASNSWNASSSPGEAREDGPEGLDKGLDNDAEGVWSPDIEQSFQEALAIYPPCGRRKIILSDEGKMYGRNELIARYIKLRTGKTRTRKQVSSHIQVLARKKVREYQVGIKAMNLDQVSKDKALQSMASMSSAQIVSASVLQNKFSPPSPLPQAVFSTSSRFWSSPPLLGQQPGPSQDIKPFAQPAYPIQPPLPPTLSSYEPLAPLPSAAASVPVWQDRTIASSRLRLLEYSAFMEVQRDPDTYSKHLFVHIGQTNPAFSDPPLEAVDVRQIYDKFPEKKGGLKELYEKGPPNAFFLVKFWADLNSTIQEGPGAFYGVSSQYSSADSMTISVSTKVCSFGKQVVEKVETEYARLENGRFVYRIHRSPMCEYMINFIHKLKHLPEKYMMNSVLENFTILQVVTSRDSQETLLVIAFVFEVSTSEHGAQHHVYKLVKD

TEAD4 [3] = target: T2, TEAD4 (Homo sapiens, UniProt Q15561); experiment: ELISA assay in H226 cells, TEAD4; design: endogenous in cells; host or cells: H226; conditions: overnight
T2 sequence (Q15561 whole entry): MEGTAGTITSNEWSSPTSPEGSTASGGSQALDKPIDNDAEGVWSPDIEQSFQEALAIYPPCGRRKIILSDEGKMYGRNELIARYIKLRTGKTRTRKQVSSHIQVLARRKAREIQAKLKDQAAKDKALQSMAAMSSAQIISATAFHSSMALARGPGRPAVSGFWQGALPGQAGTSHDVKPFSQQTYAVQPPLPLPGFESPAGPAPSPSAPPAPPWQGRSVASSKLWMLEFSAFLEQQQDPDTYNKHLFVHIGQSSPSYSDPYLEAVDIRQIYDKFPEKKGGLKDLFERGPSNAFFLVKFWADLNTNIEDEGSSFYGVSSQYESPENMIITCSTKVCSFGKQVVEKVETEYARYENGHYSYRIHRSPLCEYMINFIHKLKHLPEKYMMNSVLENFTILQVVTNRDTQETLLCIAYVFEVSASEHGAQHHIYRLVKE
Procedure: (§2) ELISA: 750k cells were plated per well of 6-well plate for 24 hours, treated with compounds overnight, cells were then lysed in lysis Buffer with 5 mg/mL protease inhibitor (Cell Signaling #9803), centrifuged at 12000 g for 5 min. Cell lysates were normalized to 2 mg/mL for subsequent assays. A 96-well assay plate (Corning #3690) was coated with TEAD antibodies (anti-TEAD1: Cell Signaling #12292, 1:100; anti-TEAD2: LSBio #LS-C101693-100, 1:50; anti-TEAD3: Abcam #ab75192, 1:100; anti-TEAD4: Abcam #ab58310, 1:400) overnight at 4° C. Plates were washed with TBST (Thermo Fisher #28360) for 3 times, blocked in 100 μL blocking buffer (2% BSA-TBST, Sigma #A7030) for 1 hour at room temperature. 50 μL cell lysates were incubated overnight at 4° C. with shaking. The next day, plates were washed with TBST three times, incubated with 1:125 anti-YPA-HRP (Cell Signaling #15028S) for 4 hours at 4° C., followed by 3× washing in TBST, then incubated in HRP substrate (Thermo Fisher #34021) for 10 min at room temperature, reaction was stopped by TMB stop solution (Thermo Fisher #N600). Signal was read at wavelength 450 nm.

NCI-H226 cells [4] = experiment: Cell proliferation and viability assay (CPA) in NCI-H226 cells; conditions: up to 6 d; for IC50: Homo sapiens, 144 h, read-out: CPA NCI-H226 IC50 Ave
Procedure: Compound potency and efficacy in inhibiting cell proliferation and viability was assessed in multiple cell lines. For example, NCI-H226 cells (ATCC #CRL-5826) were seeded at 2000 cells in 200 μL medium per well of a 96-well plate (Corning #3610) and incubated at 37° C. for 24 hours, then treated with serial diluted compounds for up to 6 d. Viable cells were measured by CellTiter-Glo 2.0 Cell Viability Assay (Promega #G9243), and the luminescence signal was read using an EnSight Multimode plate reader (PerkinElmer, model 9MLDHH34000000, integration time 100 ms) with Kaleido 3.0. software. For data analysis, dose-dependent curves were plotted as “inhibition” (% of DMSO-treated control wells), and were fitted by four-parametric model in GraphPad Prism to obtain IC50 values. […]

TEAD2 [5] = target: T3, TEAD2 (Homo sapiens, UniProt Q15562); experiment: Palmitoylation assay, TEAD2 (HEK293T cells); design: unspecified tag; expressed in transfected cells; host or cells: HEK293T; conditions: 3 um compound, 24 hours
T3 sequence (Q15562 whole entry): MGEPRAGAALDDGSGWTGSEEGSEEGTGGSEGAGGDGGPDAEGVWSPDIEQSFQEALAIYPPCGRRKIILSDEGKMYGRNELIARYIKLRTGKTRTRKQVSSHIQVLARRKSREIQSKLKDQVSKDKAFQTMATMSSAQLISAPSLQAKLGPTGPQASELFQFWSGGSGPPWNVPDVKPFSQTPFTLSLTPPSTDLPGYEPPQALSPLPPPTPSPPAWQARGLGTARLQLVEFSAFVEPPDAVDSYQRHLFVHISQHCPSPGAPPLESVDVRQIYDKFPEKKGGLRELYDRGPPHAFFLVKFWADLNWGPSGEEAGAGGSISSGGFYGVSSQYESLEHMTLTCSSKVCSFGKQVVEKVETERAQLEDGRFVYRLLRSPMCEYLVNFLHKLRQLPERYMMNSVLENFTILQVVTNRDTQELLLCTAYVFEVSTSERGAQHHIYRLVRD
Procedure: as §1

TEAD4 [6] = target: T2, TEAD4; experiment: Palmitoylation assay, TEAD4 (HEK293T cells); design: unspecified tag; expressed in transfected cells; host or cells: HEK293T; conditions: 3 um compound, 24 hours
Procedure: as §1

TEAD1 [7] = experiment: ELISA assay in H226 cells, TEAD1; conditions: Homo sapiens, NCI-H226, overnight
Procedure: as §2

TEAD3 [8] = target: T1, TEAD3; experiment: ELISA assay in H226 cells, TEAD3; design: endogenous in cells; host or cells: H226
Procedure: as §2
Target sequence in this assay (Q99594 2-435 limits assumed): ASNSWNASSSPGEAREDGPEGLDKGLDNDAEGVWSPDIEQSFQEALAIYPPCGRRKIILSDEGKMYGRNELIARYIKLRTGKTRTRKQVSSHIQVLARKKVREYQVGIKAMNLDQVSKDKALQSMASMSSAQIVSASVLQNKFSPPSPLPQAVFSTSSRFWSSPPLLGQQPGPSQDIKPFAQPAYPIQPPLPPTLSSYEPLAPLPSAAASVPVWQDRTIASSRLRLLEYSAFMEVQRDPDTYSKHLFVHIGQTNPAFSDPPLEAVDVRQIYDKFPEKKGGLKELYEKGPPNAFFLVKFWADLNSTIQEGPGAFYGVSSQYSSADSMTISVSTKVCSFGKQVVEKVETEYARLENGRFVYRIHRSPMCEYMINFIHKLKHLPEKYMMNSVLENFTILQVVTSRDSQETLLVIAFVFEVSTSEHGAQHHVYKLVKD

TEAD1 [9] = experiment: Palmitoylation assay, TEAD1 (HEK293T cells); conditions: 3 um compound, 24 hours
Procedure: as §1

TEAD2 [10] = target: T3, TEAD2; experiment: ELISA assay in H226 cells, TEAD2; design: endogenous in cells; host or cells: H226
Procedure: as §2

H2052 cells = experiment: Cell proliferation and viability assay (CPA) in H2052 cells; conditions: for IC50: Homo sapiens, NCI-H2052, read-out: CPA H2052 IC50 Ave
Procedure: (§3) Compound potency and efficacy in inhibiting cell proliferation and viability was assessed in multiple cell lines. For example, NCI-H226 cells (ATCC #CRL-5826) were seeded at 2000 cells in 200 μL medium per well of a 96-well plate (Corning #3610) and incubated at 37° C. for 24 hours, then treated with serial diluted compounds for up to 6 d. Viable cells were measured by CellTiter-Glo 2.0 Cell Viability Assay (Promega #G9243), and the luminescence signal was read using an EnSight Multimode plate reader (PerkinElmer, model 9MLDHH34000000, integration time 100 ms) with Kaleido 3.0. software. For data analysis, dose-dependent curves were plotted as “inhibition” (% of DMSO-treated control wells), and were fitted by four-parametric model in GraphPad Prism to obtain IC50 values.
(§4) Alternatively, cells were plated at 2000 cells in 200 μL medium per well of a 96-well plate (Corning #3585) overnight, treated with compound for 7 days, cell density images taken by Incycte S3 live cell analysis instrument (Sartorius) every 24 hours at the same time. Images were analyzed by Incucyte's AI-driven software to get C “% confluence” for every image. Dose-dependent curves were plotted as “% inhibition” (% o of DMSO-treated control wells) and were fitted by four-parametric model in GraphPad Prism to obtain IC50 values.

NCI-H226 cells [11] = experiment: Cell proliferation and viability assay (CPA) in NCI-H226 cells; conditions: up to 6 d; for IC50: Homo sapiens, 144 h, read-out: CPA NCI-H226 IC50 Ave; remark: listed apart in the source
Procedure: as §3, §4

## C=CC(=O)N1CC[C@H](/C=C/c2ccc(C(F)(F)F)cc2)C1 (single isomer, unassigned) [Example 10]
TEAD1 [1]
  IC50: ≤ 10 nM
  TEAD1-Luc MCF7: Max Inhibition: A (A ≥ 75%)
TEAD3 [2]
  TEAD3 Inh (palmitoylation): 98%
TEAD4 [3]
  IC50: 1010 nM
NCI-H226 cells [4]
  IC50: ≤ 100 nM
  CPA NCI-H226 Max Inh Ave: B (75% > B ≥ 50%)
TEAD2 [5]
  TEAD2 Inh (palmitoylation): 57%
TEAD4 [6]
  TEAD4 Inh (palmitoylation): 52%
TEAD1 [7]
  IC50: 13 nM
TEAD3 [8]; overnight
  IC50: 7.2 nM
TEAD1 [9]
  TEAD1 Inh (palmitoylation): 94%
TEAD2 [10]; overnight
  IC50: 89 nM
H2052 cells
  CPA H2052 Max Inh Ave: B (75% > B ≥ 50%)
  IC50: ≤ 100 nM

## C=CC(=O)N1C[C@@H](/C=C/c2ccc(C(F)(F)F)cc2)[C@H](Nc2ncccn2)C1 (single isomer, unassigned) [Example 83]
TEAD1 [1]
  IC50: 10 to 100 nM
  TEAD1-Luc MCF7: Max Inhibition: A (A ≥ 75%)
TEAD3 [2]
  TEAD3 Inh (palmitoylation): 90%
TEAD4 [3]
  IC50: 219 nM
TEAD2 [5]
  TEAD2 Inh (palmitoylation): 54%
TEAD4 [6]
  TEAD4 Inh (palmitoylation): 52%
TEAD1 [7]
  IC50: 66.4 nM
TEAD3 [8]; overnight
  IC50: 107 nM
TEAD1 [9]
  TEAD1 Inh (palmitoylation): 93%
TEAD2 [10]; overnight
  IC50: 17.7 nM

## C=CC(=O)N1CC(/C=C/c2ccc(C(F)(F)F)cc2)C1 [Example 15]
NCI-H226 cells [11]
  IC50: 100 to 500 nM
  CPA NCI-H226 Max Inh Ave: B (75% > B ≥ 50%)
TEAD1 [1]
  IC50: ≤ 10 nM
  TEAD1-Luc MCF7: Max Inhibition: A (A ≥ 75%)
TEAD3 [2]
  TEAD3 Inh (palmitoylation): 98%
TEAD2 [5]
  TEAD2 Inh (palmitoylation): 80%
TEAD4 [6]
  TEAD4 Inh (palmitoylation): 80%
TEAD1 [7]
  IC50: 14 nM
TEAD3 [8]
  IC50: 4 nM
TEAD1 [9]
  TEAD1 Inh (palmitoylation): 97%
TEAD2 [10]
  IC50: 179 nM
H2052 cells
  CPA H2052 Max Inh Ave: B (75% > B ≥ 50%)
  IC50: ≤ 100 nM

## C=CC(=O)N1CCC(C#Cc2ccc(C(F)(F)F)cc2)C1 (stereo not drawn) [Example 38, 1-(3-((4-(trifluoromethyl)phenyl)ethynyl)pyrrolidin-1-yl)prop-2-en-1-one]
TEAD1 [1]
  IC50: ≤ 10 nM
  TEAD1-Luc MCF7: Max Inhibition: A (A ≥ 75%)
TEAD3 [2]
  TEAD3 Inh (palmitoylation): 95%
TEAD4 [3]
  IC50: 15.5 nM
NCI-H226 cells [4]
  IC50: ≤ 100 nM
  CPA NCI-H226 Max Inh Ave: B (75% > B ≥ 50%)
TEAD2 [5]
  TEAD2 Inh (palmitoylation): 69%
TEAD4 [6]
  TEAD4 Inh (palmitoylation): 71%
TEAD1 [7]
  IC50: 8.7 nM
TEAD3 [8]; overnight
  IC50: 5.6 nM
TEAD1 [9]
  TEAD1 Inh (palmitoylation): 93%
TEAD2 [10]; overnight
  IC50: 3.4 nM
H2052 cells
  CPA H2052 Max Inh Ave: B (75% > B ≥ 50%)
  IC50: ≤ 100 nM

## C=CC(=O)N1CC[C@H](C/C=C/c2ccc(C(F)(F)F)cc2)C1 [Example 85]
NCI-H226 cells [11]
  IC50: 100 to 500 nM
  CPA NCI-H226 Max Inh Ave: B (75% > B ≥ 50%)
TEAD1 [1]
  IC50: ≤ 10 nM
  TEAD1-Luc MCF7: Max Inhibition: A (A ≥ 75%)
H2052 cells
  CPA H2052 Max Inh Ave: B (75% > B ≥ 50%)
  IC50: ≤ 100 nM
